Measured values taken from paper PMC6268071, “α-Glucosidase Inhibitory Constituents from Acanthopanax senticosus Harm Leaves” (Molecules, 2012).
Read-outs that look alike come from different tables or passages of the source.

Biological target: α-Glucosidase (EC.3.2.1.20) from Saccharomyces sp.
Assay: α-Glucosidase inhibition assay
Format: biochemical
Experimental: Open column chromatography was carried out using silica gel (200–300 mesh, Qingdao Marine Chemical Co., Qingdao, China) or octadecyl silica gel (ODS, 25–40 μm, Fuji, Tokyo, Japan) as stationary phases. TLC employed precoated silica gel plates (5–7 μm, Qingdao Marine Chemical Co., Qingdao, China). Preparative HPLC was carried out on a Waters 600 instument equipped with a Waters RID-2414 detector. A Waters Sunfire prep C18 OBD (19 × 250 mm i.d.; Milford, PA, USA) column was used for preparative purposes. The IR spectra were recorded as KBr pellets on a Jasco 302-A spectrometer. Optical rotation was recorded on a Jasco P-2000 polarimeter. HRESIMS were measured on a FTMS-7 instrument (Bruker Daltonics, Karlsruhe, Germany). Melting points were determined on a Gallenkemp apparatus and are uncorrected. The ^1H-, ^13C- and 2D (^1H-^1H COSY, HSQC, HMBC, NOESY) NMR spectra were recorded on a Bruker AMX-400 spectrometer using standard pulse sequences. Chemical shifts are reported in ppm (δ), and scalar coupling are reported in Hz. GC analyses were carried out using a Fuli 9790 instrument, DM-5 column (0.25 μm, 30 m × 0.25 mm, Dikma, Beijing, China). α-Glucosidase (EC.3.2.1.20) from Saccharomyces sp. was purchased from Wako Pure Chemical Indutries Ltd. (Wako 076-02841; Osaka, Japan).
The α-glucosidase (EC.3.2.1.20) enzyme inhibition assay has been performed according to the literature. α-Glucosidase (25 μL, 0.2 U/mL), various concentrations of samples (25 μL), and 67 mM phosphate buffer (pH 6.8, 175 μL) were mixed at room temperature for 10 min. Reactions were initiated by the addition of 23.2 mM p-nitrophenyl-α-D-glucopyranoside (25 μL). The reaction mixtures were incubated at 37 °C for 15 min in a final volume of 250 μL, and then 1 M Na2CO3 (50 μL) was added to the incubation solution to stop the reaction. The activities of glucosidase were detected in a 96-well plate, and the absorbance was read at 405 nm by a microplate spectrophotometer (Spectra Max, Molecular Devices, Sunnyvale, CA, USA). The negative control was prepared by adding phosphate buffer instead of the sample in the same way as the test. […] The blank was prepared by adding phosphate buffer instead of α-glucosidase using the same method. The inhibition rates (%) were calculated from the formula: […]

[1] = in vitro α-glucosidase inhibitory assay, substrate p-nitrophenyl-α-D-glucopyranoside, pH 6.8, 37 °C, value ± SEM, read-out: IC50 (μM ± SEM)
[2] = read-out: α-glucosidase inhibitory activity IC50

`COC(=O)[C@H]1O[C@@H](O[C@H]2CC[C@@]3(C)C(CC[C@]4(C)C3CC=C3C5CC(C)(C)CC[C@]5(C(=O)O)CC[C@]34C)C2(C)C)[C@H](O[C@@H]2O[C@@H](C)[C@H](O)[C@@H](O)[C@H]2O)[C@@H](O)[C@@H]1O` (stereo partly drawn) [Compound 1, 3-O-[(α-L-rhamnopyranosyl)(1→2)]-[β-D-glucuronopyranosyl-6-O-methyl ester]-olean-12-ene-28-olic acid] gave an IC50 [1] of 908 ± 67.3 µM and an IC50 [2] of 186 µM.
In the case of `COC(=O)[C@H]1O[C@@H](O[C@H]2CC[C@@]3(C)C(CC[C@]4(C)C3CC=C3C5CC(C)(C)CC[C@]5(C(=O)O)CC[C@]34C)C2(C)C)[C@H](O)[C@@H](O)[C@@H]1O` (stereo partly drawn) [Compound 2, 3-O-(β-D-glucuronopyranosyl-6-O-methyl ester)-olean-12-ene-28-olic acid], the IC50 [1] is reported as greater than 1000 µM.
With `C=C(C)[C@@H]1CC[C@]2(C(=O)O[C@@H]3O[C@H](CO[C@@H]4O[C@H](CO)[C@@H](O[C@@H]5O[C@@H](C)[C@H](O)[C@@H](O)[C@H]5O)[C@H](O)[C@H]4O)[C@@H](O)[C@H](O)[C@H]3O)CC[C@]3(C)[C@H](C[C@H]4OC(=O)C[C@@H](O)[C@]5(C)[C@@H]4[C@@]3(C)CC[C@H]5C(=C)C)[C@@H]12` [Compound 3, chiisanoside] the IC50 [1] was greater than 1000 µM.
With `C=C(C)[C@@H]1C[C@H](O)[C@]2(C(=O)O[C@@H]3O[C@H](CO[C@@H]4O[C@H](CO)[C@@H](O[C@@H]5O[C@@H](C)[C@H](O)[C@@H](O)[C@H]5O)[C@H](O)[C@H]4O)[C@@H](O)[C@H](O)[C@H]3O)CC[C@]3(C)[C@H](C[C@H]4OC(=O)C[C@@H](O)[C@]5(C)[C@@H]4[C@@]3(C)CC[C@H]5C(=C)C)[C@@H]12` [Compound 4, 22α-hydroxychiisanoside] the IC50 [1] was 820 ± 91.6 µM and the IC50 [2] was 908 µM.
Molecule `COC(=O)CC1C(=O)Nc2ccc(OC)cc21` (stereo not drawn) [Compound 5, 5-methoxy-2-oxoindolin-3-acetic acid methyl ester] has an IC50 [1] greater than 1000 µM.
With `Oc1ccc([C@H]2Oc3cc(O)cc(O)c3C[C@@H]2O)cc1` [Compound 6, (+)-afzelechin] the IC50 [1] was 186 ± 12 µM, the “α-glucosidase inhibition activity (in words)” value (qualitative statement) was “significant α-glucosidase inhibition activity” and the IC50 [2] was 820 µM.
Work on `OCc1ccc(-c2nccc3c2[nH]c2ccccc23)o1` [Compound 7, perlolyrine] yielded an IC50 [1] greater than 1000 µM.
Molecule `O=C(O)c1cc2c([nH]c3ccccc32)c(-c2ccc(CO)o2)n1` [Compound 8, 3-carboxylperlolyrine] has an IC50 [1] greater than 1000 µM.
